Among the test systems are NCI-H522 lung; NCI-H460 lung; A549 NSCLC; 786-0 renal; UACC-257 melanoma; OVCAR-8 ovarian; HL-60(TB) leukemia; SK-MEL-2 melanoma; PC-3 prostate; HCT-116 colon.
Holding throughout (test): NCI-60 cell line screen, 48 h

We go through 20 compounds from PubChem BioAssay (NCI).

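How tested: cells in 96-well plates exposed to compound for 48 hours at five concentrations. Here, GI50 denotes the concentration required for 50% inhibition of growth. At the TGI there is no net growth.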 Where a SMILES comes first, the peptide text is derived from it. The star is where a group is joined. Cbz = O=C(OCc1ccccc1)*; NHNH2 = NN*

In the case of `COc1c2c(cc3c1C1(O)Cc4ccc5c(c4C[N+]1(C)CC3)OCO5)OCO2` (configuration not stated), the TGI in the test with NCI-H522 lung, in the test on NCI-H460 lung, in the test on A549 NSCLC, in the test with 786-0 renal, in the test on UACC-257 melanoma and in the test with OVCAR-8 ovarian was over 100 µM each time. In addition, the TGI with HL-60(TB) leukemia, in the test with SK-MEL-2 melanoma, in the test on PC-3 prostate and with HCT-116 colon was over 100 µM each time.

With `COP(=O)(OC)/C(=C/c1cn(C(c2ccccc2)(c2ccccc2)c2ccccc2)cn1)NC=O`, the TGI with NCI-H522 lung is 41.2 µM; in the test on NCI-H460 lung, 34.9 µM; in the test on A549 NSCLC, over 100 µM; with 786-0 renal, over 100 µM; in the test with OVCAR-8 ovarian, 60.4 µM; in the test on HL-60(TB) leukemia, over 100 µM. The TGI in the test with SK-MEL-2 melanoma is 34.4 µM; in the test with PC-3 prostate, over 100 µM; with HCT-116 colon, 32.8 µM.

Take `O=S(=O)(/N=C(\NO)Nc1ccc(Cl)cc1)c1ccccc1`: the TGI in the test on NCI-H522 lung is 5.38 µM; in the test with NCI-H460 lung, over 59.3 µM; in the test with A549 NSCLC it was over 100 µM; in the test with 786-0 renal, 16.9 µM; with UACC-257 melanoma it was 26.6 µM; in the test with OVCAR-8 ovarian, over 75 µM. In addition, the TGI in the test with HL-60(TB) leukemia was over 33.7 µM; in the test with SK-MEL-2 melanoma it was 29.6 µM; with PC-3 prostate, 37.3 µM; in the test on HCT-116 colon it was 24.3 µM.

Take `C=CCc1cc(C(Cc2ccccc2)NC(C)C)cc(OCc2ccccc2)c1OCc1ccccc1` (configuration not stated): the TGI is 28.8 µM in the test on NCI-H522 lung; 28.5 µM in the test with NCI-H460 lung; 30.5 µM in the test on A549 NSCLC; 30.7 µM with 786-0 renal; 34.4 µM in the test with UACC-257 melanoma; 31.5 µM in the test with OVCAR-8 ovarian. In addition, the TGI in the test with HL-60(TB) leukemia amounted to 34.7 µM; in the test with SK-MEL-2 melanoma it was 33.4 µM; with PC-3 prostate, 28.8 µM; in the test on HCT-116 colon, 31.2 µM.

For `C[N+]1(CCC[N+]2(C)CC3C4C=CC(CC4)C3C2)CCOCC1` (configuration not stated), the TGI with NCI-H522 lung, with A549 NSCLC, in the test on 786-0 renal, in the test with UACC-257 melanoma, with OVCAR-8 ovarian and in the test with HL-60(TB) leukemia was over 100 µM throughout. The TGI in the test with SK-MEL-2 melanoma, in the test with PC-3 prostate and in the test on HCT-116 colon was over 100 µM throughout.

As to `Nc1c2c(nc3ccccc13)-c1ccccc1NCCC2`, the TGI is 82.6 µM with NCI-H522 lung; 38 µM in the test with NCI-H460 lung; over 100 µM in the test with A549 NSCLC; 32.4 µM in the test with 786-0 renal; 28.3 µM in the test on UACC-257 melanoma; over 100 µM in the test on OVCAR-8 ovarian. Moreover, the TGI was 47.5 µM in the test on HL-60(TB) leukemia, 37.1 µM in the test on SK-MEL-2 melanoma, over 100 µM in the test on PC-3 prostate and 94.3 µM in the test on HCT-116 colon.

With `c1ccc2c(c1)ccn1ccc3c4ccccc4nc-3c21`, the TGI with NCI-H522 lung came out at 1.7 µM; with A549 NSCLC, 1.57 µM; with 786-0 renal it was 1.31 µM; with UACC-257 melanoma, 2.92 µM; in the test with OVCAR-8 ovarian it was 1.78 µM; in the test on HL-60(TB) leukemia it was 1.36 µM. Also, the figures for the TGI with SK-MEL-2 melanoma and with PC-3 prostate were 2.54 µM and 1.67 µM, respectively.

On to `CCOC(=O)C(O)(C(=O)OCC)c1cc(C(C)(C)C)c(O)c(C(C)(C)C)c1`, for which the TGI with NCI-H522 lung is over 100 µM; with A549 NSCLC it was over 100 µM; in the test with 786-0 renal it was over 100 µM; with UACC-257 melanoma, over 100 µM; in the test with OVCAR-8 ovarian, over 100 µM; in the test on HL-60(TB) leukemia it was 98.2 µM. For the same compound, the TGI with SK-MEL-2 melanoma, with PC-3 prostate and in the test with HCT-116 colon was over 100 µM in each case.

On to `N#CCN(CC#N)C1CC=CCC1N(CC#N)CC#N` (configuration not stated), for which the TGI with NCI-H522 lung, in the test on NCI-H460 lung, with A549 NSCLC, in the test with 786-0 renal, in the test with UACC-257 melanoma and in the test with OVCAR-8 ovarian was over 100 µM each time. The TGI in the test with HL-60(TB) leukemia, in the test on SK-MEL-2 melanoma, in the test with PC-3 prostate and in the test with HCT-116 colon was over 100 µM throughout.

In the case of `CCC(O)c1ccc(N=Cc2ccccc2O)cc1` (configuration not stated), the TGI in the test with NCI-H522 lung, in the test on NCI-H460 lung, in the test with A549 NSCLC, in the test with 786-0 renal, in the test on HL-60(TB) leukemia and with SK-MEL-2 melanoma was over 100 µM throughout. In addition, the TGI with PC-3 prostate and in the test on HCT-116 colon was over 100 µM throughout.

Turning to `Cc1ccc2oc3c(c(Br)c(Br)n3C)c(=O)c2c1`, the TGI in the test on NCI-H522 lung is over 100 µM; with A549 NSCLC, 51.5 µM; in the test with 786-0 renal, 30.3 µM; in the test with UACC-257 melanoma it was over 100 µM; in the test with OVCAR-8 ovarian it was 31.9 µM; in the test with HL-60(TB) leukemia, over 100 µM. Moreover, the TGI in the test with SK-MEL-2 melanoma was 89 µM; in the test on PC-3 prostate, over 100 µM; in the test on HCT-116 colon, 33.9 µM.

In the case of `CCOC(=O)CCC(NC(=O)OCc1ccccc1)C(=O)NC(CCC(=O)OCC)C(=O)NN` (configuration not stated) (Cbz-Glu(OEt)-Glu(OEt)-NHNH2; configuration not given here), the TGI in the test on NCI-H460 lung, with A549 NSCLC, in the test with 786-0 renal, in the test with UACC-257 melanoma, in the test with OVCAR-8 ovarian and with HL-60(TB) leukemia was over 100 µM each time. Besides, the TGI in the test on SK-MEL-2 melanoma, in the test with PC-3 prostate and in the test with HCT-116 colon was over 100 µM each time.

Consider `NC(=Nc1cccc(Cl)c1)c1ccccc1N`, for which the TGI with NCI-H522 lung, in the test with NCI-H460 lung, with A549 NSCLC, in the test with 786-0 renal, in the test with UACC-257 melanoma and in the test on OVCAR-8 ovarian was over 100 µM throughout. Besides, the TGI in the test with HL-60(TB) leukemia, with PC-3 prostate and in the test on HCT-116 colon was over 100 µM throughout.

Turning to `O=C1CCCCC/C1=C\c1ccccc1`, the TGI in the test with NCI-H522 lung, in the test with NCI-H460 lung, in the test with A549 NSCLC, with 786-0 renal, in the test on UACC-257 melanoma and with HL-60(TB) leukemia was over 100 µM throughout. For the same compound, the TGI in the test on SK-MEL-2 melanoma, in the test with PC-3 prostate and in the test with HCT-116 colon was over 100 µM throughout.

Consider `ClCc1cccc(CSc2ncnc3c2ncn3Cc2cccc(CCl)c2)c1`, for which the GI50 in the test on NCI-H522 lung is 1.42 µM; in the test on NCI-H460 lung, 2.04 µM; in the test with A549 NSCLC it was 4.54 µM; with UACC-257 melanoma it was 1.74 µM; with OVCAR-8 ovarian, 2.11 µM; in the test on HL-60(TB) leukemia, 2.26 µM. Besides, the GI50 is 2.58 µM in the test with SK-MEL-2 melanoma, 1.67 µM with PC-3 prostate and 1.76 µM with HCT-116 colon. The TGI with NCI-H522 lung was 3.42 µM; with NCI-H460 lung, 4.76 µM; in the test with A549 NSCLC, 18.4 µM; with UACC-257 melanoma it was 3.37 µM; in the test with OVCAR-8 ovarian it was 6.24 µM; with HL-60(TB) leukemia, 5.03 µM. The TGI in the test on SK-MEL-2 melanoma was 6.81 µM; in the test on PC-3 prostate, 3.34 µM; in the test with HCT-116 colon, 3.31 µM.

For `CC/C=C/C[C@H](O)[C@H]1C[C@H]2O[C@H](CC(=O)OC)C[C@H]2O1`, the TGI in the test with NCI-H522 lung, with NCI-H460 lung, in the test with A549 NSCLC, with 786-0 renal, in the test with OVCAR-8 ovarian and in the test with HL-60(TB) leukemia was over 100 µM throughout. In addition, the TGI in the test with SK-MEL-2 melanoma, in the test with PC-3 prostate and in the test on HCT-116 colon was over 100 µM throughout.

On to `CCN(CC)c1ccc2cc(C(=O)Nc3ccc(C)cc3)c(=N)oc2c1`, for which the TGI with NCI-H460 lung, with A549 NSCLC, in the test with 786-0 renal, with UACC-257 melanoma, with OVCAR-8 ovarian and in the test on HL-60(TB) leukemia was over 100 µM throughout. In addition, the TGI with SK-MEL-2 melanoma, in the test with PC-3 prostate and with HCT-116 colon was over 100 µM each time.

As for `CO[C@@H]1C[C@H](OC(N)=O)[C@@H]2C=C[C@@H]3/C=C(C)/C=C/[C@@H](C)[C@H](/C(C)=C/[C@@H](C)NC(C)=O)OC(=O)/C=C/C=C(C)\C=C\[C@]3(C)[C@@H]2C1`, the TGI came to 0.103 µM with NCI-H522 lung; 0.223 µM with A549 NSCLC; 2.74 µM with 786-0 renal; 0.0866 µM with UACC-257 melanoma; 50 µM with OVCAR-8 ovarian; 3.04 µM in the test on HL-60(TB) leukemia. Moreover, the TGI with SK-MEL-2 melanoma amounted to 2.12 µM; with PC-3 prostate, 1.58 µM; with HCT-116 colon it was 0.107 µM.

Turning to `COc1ccc(-n2c(=O)n(-c3ccccc3)c(=O)n2-c2ccc(OC)cc2)cc1`, the TGI in the test on NCI-H522 lung, with A549 NSCLC, in the test with 786-0 renal, in the test with UACC-257 melanoma, in the test with OVCAR-8 ovarian and in the test on HL-60(TB) leukemia was over 100 µM throughout. The TGI in the test on SK-MEL-2 melanoma, in the test with PC-3 prostate and with HCT-116 colon was over 100 µM in each case.

On to `C(=Nc1ccc(-c2nc3ccccc3[nH]2)cc1)c1ccco1`, for which the TGI in the test with NCI-H522 lung, with A549 NSCLC, in the test with 786-0 renal, in the test with UACC-257 melanoma, in the test with OVCAR-8 ovarian and with HL-60(TB) leukemia was over 100 µM in each case. In addition, the TGI in the test on SK-MEL-2 melanoma, in the test on PC-3 prostate and in the test with HCT-116 colon was over 100 µM each time.
